The source made the active and inactive calls.
Tests used:
[1] = biological target: Cyclin-dependent kinase 5/CDK5 activator 1 (Homo sapiens, UniProt Q00535); test: CDK5/p35 kinase inhibitors, dose response, biochemical, cherry-picked samples, set 2 (AID 504545)
[2] = biological target: T1, Voltage-gated N-type calcium channel alpha-1B subunit/Amyloid beta A4 precursor protein-binding family A member 1 (Homo sapiens, UniProt Q00975+Q02410); test: disruptors of Mint-PDZ/N-type channel peptide interaction – biochemical, HTRF, set 2, SAR follow-up (AID 434980); assay type: functional
[3] = biological target: T1, Voltage-gated N-type calcium channel alpha-1B subunit/Amyloid beta A4 precursor protein-binding family A member 1; test: disruptors of Mint-PDZ/N-type channel peptide interaction – biochemical, HTRF, SAR follow-up (AID 2489); assay type: functional
[4] = biological target: Dual specificity protein phosphatase 3 (Homo sapiens, UniProt P51452); test: VHR1 inhibitor Ki determination, SAR follow-up, biochemical, colorimetric (AID 2004)
[5] = Luminescence Cell-Based Dose Retest to Confirm Inhibitors of Cancer Stem Cells. [Related pubchem assays (depositor defined):AID2717, AID2721]; assay type: functional; details: Homo sapiens
[6] = biological target: Neurotensin receptor type 1 (Homo sapiens, UniProt P30989); assay type: functional;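 note: Image-based confirmatory dose-response assay measuring agonist activity at NTR1; NTR1-expressing U2OS osteosarcoma cells imaged for beta-arrestin GFP spot formation; agonist potency where compounds increase beta-arrestin recruitment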
[7] = biological target: T2, Leucine aminopeptidase (Plasmodium falciparum 3D7, UniProt Q8IL11); test: P. falciparum M17LAP inhibitors, primary screen, biochemical, fluorogenic H-Leu-NHMec substrate, 1536-well (AID 1619); assay type: functional
T2 sequence (Q8IL11 whole entry): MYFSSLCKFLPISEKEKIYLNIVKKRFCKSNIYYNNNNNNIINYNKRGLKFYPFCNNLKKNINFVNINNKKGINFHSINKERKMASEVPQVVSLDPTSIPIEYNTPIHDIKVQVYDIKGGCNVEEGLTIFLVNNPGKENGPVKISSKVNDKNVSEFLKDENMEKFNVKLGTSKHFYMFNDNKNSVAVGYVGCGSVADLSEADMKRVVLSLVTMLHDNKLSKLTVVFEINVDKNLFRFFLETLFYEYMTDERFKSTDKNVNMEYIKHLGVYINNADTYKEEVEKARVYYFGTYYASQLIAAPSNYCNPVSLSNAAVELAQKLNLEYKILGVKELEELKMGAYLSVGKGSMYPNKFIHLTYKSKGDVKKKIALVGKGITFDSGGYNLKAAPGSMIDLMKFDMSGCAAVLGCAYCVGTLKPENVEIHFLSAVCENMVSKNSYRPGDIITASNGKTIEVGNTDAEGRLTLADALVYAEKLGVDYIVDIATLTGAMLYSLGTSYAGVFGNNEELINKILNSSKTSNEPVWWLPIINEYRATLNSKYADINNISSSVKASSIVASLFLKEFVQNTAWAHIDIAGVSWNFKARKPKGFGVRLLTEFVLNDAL

[8] = Cytotoxicity screening for potential Inhibitors of Bacterial Capsule Biogenesis. [Related pubchem assays (depositor defined):AID488970]; assay type: functional
[9] = biological target: Melanin-concentrating hormone receptor 1 (Homo sapiens, UniProt Q99705); test: Fluorescence-based counterscreen for antagonists of the G-protein coupled receptor 7 (GPR7): cell-based high throughput dose response assay to identify antagonists of the melanin-concentrating hormone receptor 1 (MCHR1).; assay type: functional
[10] = biological target: T3, Heat shock 70 kDa protein 1A (Homo sapiens, UniProt P0DMV8); test: Hsp70 inhibitors, biochemical, TR-FRET (AID 786)
[11] = biological target: T4, RNA-binding protein pos-1 (Caenorhabditis elegans, UniProt G5EF15); test: inhibitors of POS-1/mex-3 RNA binding, dose response, biochemical, fluorescence polarization (AID 1964);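 note: purified POS-1 fused to maltose binding protein made in E. coli; potency of compounds blocking POS-1 binding to fluorescent RNA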
T4 sequence (G5EF15 whole entry): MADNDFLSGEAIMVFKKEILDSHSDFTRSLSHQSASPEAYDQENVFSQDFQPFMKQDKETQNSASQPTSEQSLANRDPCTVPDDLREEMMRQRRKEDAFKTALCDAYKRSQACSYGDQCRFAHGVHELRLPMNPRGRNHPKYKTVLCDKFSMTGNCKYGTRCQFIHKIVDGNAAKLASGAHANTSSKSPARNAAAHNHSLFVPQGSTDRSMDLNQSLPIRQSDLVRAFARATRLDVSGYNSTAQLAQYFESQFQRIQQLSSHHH

[12] = biological target: Bcl-2-like protein 10 (Homo sapiens, UniProt Q9HD36); test: displacers of TR3 peptide from Bcl-B, primary screen, selectivity assay for Bfl-1 inhibitor project, biochemical, fluorescence polarization, FITC-TR3 peptide (AID 748);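 note: fluorescence polarization from a fluorescein-labelled TR3 peptide binding purified Bcl-B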
[13] = biological target: T3, Heat shock 70 kDa protein 1A; test: Hsp70 inhibitors, probe displacement, primary screen, biochemical, fluorescence polarization (AID 583)
[14] = biological target: T5, Zinc finger protein mex-5 (Caenorhabditis elegans, UniProt Q9XUB2); test: MEX-5/TCR-2 RNA interaction inhibitors, dose response, biochemical, C. elegans, fluorescence polarization (AID 1960)
T5 sequence (Q9XUB2 whole entry): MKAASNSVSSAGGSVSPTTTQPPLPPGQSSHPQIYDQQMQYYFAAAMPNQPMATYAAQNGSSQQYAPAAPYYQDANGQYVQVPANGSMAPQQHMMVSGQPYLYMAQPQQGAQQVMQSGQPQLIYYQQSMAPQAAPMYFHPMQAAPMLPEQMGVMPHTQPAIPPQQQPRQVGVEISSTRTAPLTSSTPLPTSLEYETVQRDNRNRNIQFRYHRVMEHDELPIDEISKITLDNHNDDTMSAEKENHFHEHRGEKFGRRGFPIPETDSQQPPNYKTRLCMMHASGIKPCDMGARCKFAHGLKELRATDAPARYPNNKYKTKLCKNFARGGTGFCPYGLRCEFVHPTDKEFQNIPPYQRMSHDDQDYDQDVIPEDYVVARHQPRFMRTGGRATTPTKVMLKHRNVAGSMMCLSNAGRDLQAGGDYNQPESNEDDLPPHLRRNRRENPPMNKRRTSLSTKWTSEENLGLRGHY

[15] = biological target: Mothers against decapentaplegic homolog 3 (Homo sapiens, UniProt P84022); test: SMAD3 transcription factor inhibitors, dose response (AID 715); assay type: functional
[16] = biological target: T6, Estrogen receptor beta (Homo sapiens, UniProt Q92731);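 note: recombinant ER-beta bound to coactivator SRC1 peptide in presence of estradiol agonist; inhibitors block coactivator peptide binding and lower the FRET signal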
[17] = biological target: T6, Estrogen receptor beta; test: ERβ–SRC-3 coactivator interaction inhibitors, confirmation, orthogonal assay, biochemical, ELISA, streptavidin-HRP readout (AID 1060)
[18] = biological target: Protein-tyrosine kinase 2-beta (Homo sapiens, UniProt Q14289);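 note: potency of inhibitors of PYK2 kinase phosphorylation of poly-GT substrate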
[19] = biological target: Bifunctional protein GlmU (Mycobacterium tuberculosis, UniProt P9WMN3); test: Inhibitors of Mycobacterial Glucosamine-1-phosphate acetyl transferase (GlmU). Secondary screen.; design: species or system Mycobacterium tuberculosis H37Rv
[20] = biological target: Ephrin type-A receptor 4 (Mus musculus, UniProt Q03137); test: inhibitors of EphA4 binding to KYL peptide, primary screen, biochemical, colorimetric, mouse EphA4 (AID 689); assay type: functional
[21] = biological target: T7, Dual specificity protein phosphatase 6 (Rattus norvegicus, UniProt Q64346); test: MKP-3 phosphatase inhibitors, primary screen, biochemical, rat enzyme, in vitro (AID 425)
T7 sequence (Q64346 whole entry): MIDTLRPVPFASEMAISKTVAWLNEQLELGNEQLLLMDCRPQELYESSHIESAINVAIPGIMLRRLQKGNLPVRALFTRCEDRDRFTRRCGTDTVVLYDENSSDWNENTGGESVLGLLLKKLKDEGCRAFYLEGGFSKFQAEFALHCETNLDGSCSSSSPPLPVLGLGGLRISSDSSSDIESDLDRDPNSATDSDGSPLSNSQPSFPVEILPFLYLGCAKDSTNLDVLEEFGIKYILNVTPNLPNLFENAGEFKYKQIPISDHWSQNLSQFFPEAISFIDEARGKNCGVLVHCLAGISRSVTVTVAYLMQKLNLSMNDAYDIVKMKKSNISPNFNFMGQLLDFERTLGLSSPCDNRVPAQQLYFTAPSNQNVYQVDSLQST

[22] = tested on: HeLa; test: HeLa cell cytotoxicity, dose response, cytotoxicity control, 24 h, cherry-picked samples (AID 504726); assay type: functional, cell-based; details: Homo sapiens;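 note: potency for cytotoxicity as loss of luminescence signal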
[23] = biological target: ORF 73 (Human herpesvirus 8, UniProt O40947); test: inhibitors of C-LANA binding to LBS DNA, dose response, biochemical, fluorescence polarization, cherry-picked samples (AID 504725); design: species or system Human gammaherpesvirus 8;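 note: fluorescence polarization of a labeled DNA duplex reporting LANA DNA binding; potency is for inhibitors that block LANA binding to the DNA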
[24] = biological target: DNA (cytosine-5)-methyltransferase 1 (Homo sapiens, UniProt P26358); test: DNMT1 methyltransferase inhibitors, confirmation, biochemical, fluorescent molecular beacon (AID 602386); assay type: functional
[25] = cells; assay type: functional, cell-based
[26] = biological target: T8, Trace amine-associated receptor 1 (Homo sapiens, UniProt Q96RJ0); test: Fluorescence-based cell-based high throughput dose response assay to identify agonists of the human trace amine associated receptor 1 (TAAR1).; assay type: functional
T8 sequence (Q96RJ0 whole entry): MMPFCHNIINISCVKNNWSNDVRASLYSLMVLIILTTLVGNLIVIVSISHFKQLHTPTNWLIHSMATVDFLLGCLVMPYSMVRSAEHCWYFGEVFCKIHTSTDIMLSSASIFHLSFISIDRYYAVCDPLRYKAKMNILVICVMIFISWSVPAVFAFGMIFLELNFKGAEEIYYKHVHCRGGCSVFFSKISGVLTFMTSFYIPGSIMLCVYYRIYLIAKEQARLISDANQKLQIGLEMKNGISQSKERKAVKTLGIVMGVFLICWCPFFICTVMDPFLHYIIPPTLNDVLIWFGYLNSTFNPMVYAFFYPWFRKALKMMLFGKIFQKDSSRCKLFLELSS

[27] = biological target: T8, Trace amine-associated receptor 1; test: Counterscreen for agonists of the human trace amine associated receptor 1 (hTAAR1): Fluorescence-based cell-based high throughput dose response assay to identify hTAAR1 agonist that also desensitize TAAR1 receptor response.; assay type: functional
[28] = cells; assay type: functional, cell-based; remark: listed apart in the source
[29] = biological target: Cytochrome P450 2C9 (Homo sapiens, UniProt P11712)
[30] = biological target: T9, Eukaryotic translation initiation factor 2-alpha kinase 3 (Homo sapiens, UniProt Q9NZJ5); test: Dose response cell-based high-throughput screening assay to measure PERK inhibition. [Related pubchem assays: 1416 ]; assay type: functional
[31] = biological target: T9, Eukaryotic translation initiation factor 2-alpha kinase 3; test: Counterscreen assay for PERK inhibitors: Dose response cell-based high throughput screening assay to measure inhibition of PERK at 6 hours. [Related pubchem assays: 1522, 1416 ]; assay type: functional

T6 sequence (Q92731 whole entry): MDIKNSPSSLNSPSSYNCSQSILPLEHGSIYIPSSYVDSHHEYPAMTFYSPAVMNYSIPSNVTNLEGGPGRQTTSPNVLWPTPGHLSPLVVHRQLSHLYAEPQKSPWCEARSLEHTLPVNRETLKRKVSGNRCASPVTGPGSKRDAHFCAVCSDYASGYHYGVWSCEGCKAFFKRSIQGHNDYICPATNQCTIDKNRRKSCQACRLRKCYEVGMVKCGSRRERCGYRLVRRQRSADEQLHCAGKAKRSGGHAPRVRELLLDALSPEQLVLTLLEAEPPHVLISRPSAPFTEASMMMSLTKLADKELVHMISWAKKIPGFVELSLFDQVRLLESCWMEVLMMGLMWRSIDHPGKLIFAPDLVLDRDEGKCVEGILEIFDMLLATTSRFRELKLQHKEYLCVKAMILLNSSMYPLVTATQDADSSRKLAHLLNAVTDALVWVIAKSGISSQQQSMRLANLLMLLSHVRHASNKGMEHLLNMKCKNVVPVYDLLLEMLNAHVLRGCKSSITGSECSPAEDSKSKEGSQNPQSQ
T1 sequence (Q00975 whole entry): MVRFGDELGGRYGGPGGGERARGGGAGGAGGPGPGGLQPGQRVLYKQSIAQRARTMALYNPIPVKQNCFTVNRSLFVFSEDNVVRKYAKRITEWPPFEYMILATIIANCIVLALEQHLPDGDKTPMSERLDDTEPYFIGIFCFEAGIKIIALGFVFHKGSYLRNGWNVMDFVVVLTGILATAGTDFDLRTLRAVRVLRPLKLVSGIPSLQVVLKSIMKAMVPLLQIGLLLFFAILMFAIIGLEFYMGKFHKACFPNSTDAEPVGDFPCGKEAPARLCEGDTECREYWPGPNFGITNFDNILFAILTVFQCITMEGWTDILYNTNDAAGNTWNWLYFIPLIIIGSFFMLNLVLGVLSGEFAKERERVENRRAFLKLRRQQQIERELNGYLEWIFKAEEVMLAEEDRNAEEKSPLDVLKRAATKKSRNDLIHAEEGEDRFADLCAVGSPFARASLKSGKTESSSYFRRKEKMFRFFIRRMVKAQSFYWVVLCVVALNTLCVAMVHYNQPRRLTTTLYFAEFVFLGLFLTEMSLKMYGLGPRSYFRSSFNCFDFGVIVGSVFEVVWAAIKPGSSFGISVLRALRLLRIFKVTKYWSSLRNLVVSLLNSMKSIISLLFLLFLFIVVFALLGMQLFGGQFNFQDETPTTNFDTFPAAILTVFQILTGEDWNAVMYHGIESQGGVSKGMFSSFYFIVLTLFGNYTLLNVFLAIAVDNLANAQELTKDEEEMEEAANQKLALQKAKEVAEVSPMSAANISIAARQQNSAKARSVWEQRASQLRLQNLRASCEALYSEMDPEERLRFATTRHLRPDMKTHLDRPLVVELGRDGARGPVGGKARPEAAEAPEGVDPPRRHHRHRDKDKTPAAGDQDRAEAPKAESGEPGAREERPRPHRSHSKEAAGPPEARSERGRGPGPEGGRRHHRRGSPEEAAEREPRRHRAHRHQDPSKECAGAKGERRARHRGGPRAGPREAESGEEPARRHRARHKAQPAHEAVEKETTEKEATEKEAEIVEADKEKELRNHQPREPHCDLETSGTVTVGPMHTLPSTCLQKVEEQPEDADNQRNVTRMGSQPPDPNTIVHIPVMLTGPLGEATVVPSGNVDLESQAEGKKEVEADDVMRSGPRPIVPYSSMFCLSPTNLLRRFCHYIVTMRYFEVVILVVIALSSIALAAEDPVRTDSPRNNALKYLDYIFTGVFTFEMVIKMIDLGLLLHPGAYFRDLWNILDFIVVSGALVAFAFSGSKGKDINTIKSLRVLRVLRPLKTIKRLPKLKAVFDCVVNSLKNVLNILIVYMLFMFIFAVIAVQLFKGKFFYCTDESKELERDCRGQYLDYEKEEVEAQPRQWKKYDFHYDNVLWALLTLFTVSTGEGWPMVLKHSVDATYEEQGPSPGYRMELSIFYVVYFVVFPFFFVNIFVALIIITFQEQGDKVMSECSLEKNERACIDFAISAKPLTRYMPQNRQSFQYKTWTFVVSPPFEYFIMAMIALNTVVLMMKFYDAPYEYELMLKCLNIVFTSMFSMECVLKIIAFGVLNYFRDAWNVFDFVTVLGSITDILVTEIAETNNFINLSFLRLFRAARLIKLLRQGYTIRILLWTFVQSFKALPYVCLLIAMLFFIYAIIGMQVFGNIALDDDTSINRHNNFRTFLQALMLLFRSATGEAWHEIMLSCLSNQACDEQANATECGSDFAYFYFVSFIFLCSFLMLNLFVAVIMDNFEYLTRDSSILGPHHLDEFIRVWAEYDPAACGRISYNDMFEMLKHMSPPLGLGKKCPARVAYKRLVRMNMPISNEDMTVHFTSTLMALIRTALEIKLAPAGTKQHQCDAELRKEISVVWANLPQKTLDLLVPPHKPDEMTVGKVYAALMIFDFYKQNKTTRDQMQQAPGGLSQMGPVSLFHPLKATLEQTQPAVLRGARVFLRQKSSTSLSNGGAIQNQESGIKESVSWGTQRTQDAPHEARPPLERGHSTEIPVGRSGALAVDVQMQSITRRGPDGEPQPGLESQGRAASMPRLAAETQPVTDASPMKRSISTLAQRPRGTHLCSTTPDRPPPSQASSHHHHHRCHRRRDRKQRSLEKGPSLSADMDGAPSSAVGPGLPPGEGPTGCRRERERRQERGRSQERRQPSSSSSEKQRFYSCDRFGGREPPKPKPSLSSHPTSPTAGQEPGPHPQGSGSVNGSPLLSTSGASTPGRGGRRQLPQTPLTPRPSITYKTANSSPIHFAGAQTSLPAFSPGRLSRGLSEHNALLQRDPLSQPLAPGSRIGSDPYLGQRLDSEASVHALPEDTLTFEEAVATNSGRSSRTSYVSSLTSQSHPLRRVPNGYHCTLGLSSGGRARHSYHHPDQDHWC
T1 sequence (Q02410 whole entry): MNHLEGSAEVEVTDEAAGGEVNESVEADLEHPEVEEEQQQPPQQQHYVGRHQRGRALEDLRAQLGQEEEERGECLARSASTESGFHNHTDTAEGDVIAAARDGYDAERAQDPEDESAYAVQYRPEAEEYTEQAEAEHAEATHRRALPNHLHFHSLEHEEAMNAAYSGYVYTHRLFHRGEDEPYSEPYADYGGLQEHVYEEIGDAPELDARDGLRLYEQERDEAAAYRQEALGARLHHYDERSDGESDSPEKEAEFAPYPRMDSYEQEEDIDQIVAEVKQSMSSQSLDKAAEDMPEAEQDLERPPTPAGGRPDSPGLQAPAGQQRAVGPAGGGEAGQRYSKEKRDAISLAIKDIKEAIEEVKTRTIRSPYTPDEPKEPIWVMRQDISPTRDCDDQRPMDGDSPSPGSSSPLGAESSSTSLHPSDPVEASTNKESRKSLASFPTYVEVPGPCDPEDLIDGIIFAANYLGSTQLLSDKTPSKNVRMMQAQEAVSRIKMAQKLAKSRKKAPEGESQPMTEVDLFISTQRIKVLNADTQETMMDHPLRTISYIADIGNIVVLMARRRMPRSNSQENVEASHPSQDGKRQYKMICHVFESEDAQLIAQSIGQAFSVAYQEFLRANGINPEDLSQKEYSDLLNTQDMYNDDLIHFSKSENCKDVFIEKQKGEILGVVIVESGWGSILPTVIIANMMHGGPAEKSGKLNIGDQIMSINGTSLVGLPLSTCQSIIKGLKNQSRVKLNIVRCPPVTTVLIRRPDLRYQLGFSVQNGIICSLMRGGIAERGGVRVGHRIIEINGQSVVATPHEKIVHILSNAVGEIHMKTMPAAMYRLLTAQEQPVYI
T9 sequence (Q9NZJ5 whole entry): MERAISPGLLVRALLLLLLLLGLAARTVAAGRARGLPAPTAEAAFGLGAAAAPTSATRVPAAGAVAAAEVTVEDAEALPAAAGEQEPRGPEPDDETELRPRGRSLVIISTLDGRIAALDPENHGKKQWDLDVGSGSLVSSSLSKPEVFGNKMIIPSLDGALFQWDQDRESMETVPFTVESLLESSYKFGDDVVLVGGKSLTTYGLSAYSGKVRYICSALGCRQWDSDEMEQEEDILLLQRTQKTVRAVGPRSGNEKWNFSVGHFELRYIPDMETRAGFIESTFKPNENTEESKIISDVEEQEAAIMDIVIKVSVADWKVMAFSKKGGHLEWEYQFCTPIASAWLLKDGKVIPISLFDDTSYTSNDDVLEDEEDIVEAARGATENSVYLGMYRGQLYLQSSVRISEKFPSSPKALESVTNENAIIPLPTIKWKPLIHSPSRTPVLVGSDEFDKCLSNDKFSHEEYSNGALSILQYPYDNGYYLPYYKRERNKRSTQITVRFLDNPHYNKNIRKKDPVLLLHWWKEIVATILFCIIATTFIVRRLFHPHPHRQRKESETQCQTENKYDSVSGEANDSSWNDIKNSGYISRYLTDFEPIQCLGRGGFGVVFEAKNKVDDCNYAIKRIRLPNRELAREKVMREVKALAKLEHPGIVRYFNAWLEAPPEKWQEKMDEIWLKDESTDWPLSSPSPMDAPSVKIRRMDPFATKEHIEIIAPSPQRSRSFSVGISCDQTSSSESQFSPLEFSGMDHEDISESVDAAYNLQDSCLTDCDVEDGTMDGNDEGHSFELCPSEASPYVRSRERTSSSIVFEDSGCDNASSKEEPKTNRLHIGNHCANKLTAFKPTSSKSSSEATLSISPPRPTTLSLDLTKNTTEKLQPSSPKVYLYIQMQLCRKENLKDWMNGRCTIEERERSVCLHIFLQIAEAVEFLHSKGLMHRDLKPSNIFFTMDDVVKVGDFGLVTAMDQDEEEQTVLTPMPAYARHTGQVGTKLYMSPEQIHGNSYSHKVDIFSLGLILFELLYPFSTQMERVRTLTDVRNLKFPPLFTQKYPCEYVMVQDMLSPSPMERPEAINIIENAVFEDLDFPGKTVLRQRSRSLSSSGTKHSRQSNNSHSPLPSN
Bcl-2-like protein 10, sequence (Q9HD36 whole entry): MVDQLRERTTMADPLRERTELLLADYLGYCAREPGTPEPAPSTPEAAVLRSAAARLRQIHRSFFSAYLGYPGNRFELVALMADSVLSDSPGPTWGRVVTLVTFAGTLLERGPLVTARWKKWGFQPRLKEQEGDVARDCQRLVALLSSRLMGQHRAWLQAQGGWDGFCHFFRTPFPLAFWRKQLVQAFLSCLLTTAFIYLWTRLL

SMILES: CCC(C)(C)C1CCc2n[nH]c(C(=O)NCCN3CCOCC3)c2C1 (stereo unspecified)
- AC50 [1]: 20.9 µM (active)

SMILES: O=C(NCCc1ccncc1)c1cc(-c2ccco2)nc2ccccc12
- IC50 [2]: > 56.8 µM (inactive)
- IC50 [3]: > 56.8 µM (inactive)

SMILES: Cc1ccc(-c2ccccc2)n1-c1ccc(O)c(C(=O)O)c1
- Ki [4]: 80.3 µM (inactive)

SMILES: CC(C)CN1C(=O)/C(=C/c2c[nH]nc2-c2ccccc2)SC1=S
- AC50 [5]: 2.59 µM (active)
- EC50 [6]: 15 µM (active)

SMILES: CC1(C(=O)O)CCC(C(=O)Nc2ccc3ccccc3c2)C1(C)C (stereo unspecified)
- IC50 [7]: 12.5 µM (active)
- CC50 [8]: > 100 µM (active)

SMILES: N=C(N)NS(=O)(=O)c1ccc(NC(=S)NC(=O)Cc2ccc(Cl)cc2)cc1
- IC50 [9]: 21.8 µM (not active)

SMILES: CC1(C)CCCN(C(=O)c2coc(=O)c(Br)c2)C1
- IC50 [10]: 8.32 µM (active)
- EC50 [11]: > 300 µM (not active)
- IC50 [12]: 6.54 µM (active)
- IC50 [13]: 13.1 µM (active)
- EC50 [14]: 68.3 µM (active)
- IC50 [15]: 14 µM (active)
- IC50 [16]: < 1.56 µM (active)
- IC50 [17]: 93.2 µM (not active)
- IC50 [18]: 5.23 µM (active)
- IC50 [19]: 21.2 µM (active)
- IC50 [20]: 8.98 µM (active)
- IC50 [21]: > 10 µM (not active)
- AC50 [22]: 96.3 µM (active)
- AC50 [23]: 71.2 µM (active)
- IC50 [24]: 2.92 µM (active)
- IC50 [25]: > 29.9 µM (inactive)
- EC50 [26]: 0.827 µM (active)
- IC50 [27]: 2.41 µM (active)
- EC50 [28]: > 29.9 µM (inactive)
- AC50 [29]: 28.2 µM (inconclusive)

SMILES: CC(C)C(=O)NNc1ccc(C(F)(F)F)cn1
- EC50 [30]: > 55.7 µM (not active)
- EC50 [31]: > 55.7 µM (not active)

From ChEMBL document CHEMBL1201862, “PubChem BioAssay data set” (2004)
